According to PubChem BioAssay (NCI):
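GI50: concentration for 50% inhibition of growth. At the TGI there is no net growth.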

Key:
Experiment in all cases: DTP human tumour cell line panel, 384-well format; in the data active means GI50 below about 0.43 µM; inactive means the rest
SNB-75 CNS = system: SNB-75 CNS
MOLT-4 leukemia = system: MOLT-4 leukemia
HS 578T breast = system: HS 578T breast
SF-268 CNS = system: SF-268 CNS
NCI-H522 lung = system: NCI-H522 lung
SK-MEL-2 melanoma = system: SK-MEL-2 melanoma
COLO 205 colon = system: COLO 205 colon
NCI-H322M lung = system: NCI-H322M lung
ACHN renal = system: ACHN renal
A549 NSCLC = system: A549 NSCLC
SW-620 colon = system: SW-620 colon
MDA-MB-231 breast = system: MDA-MB-231 breast
UACC-62 melanoma = system: UACC-62 melanoma
HT29 colon = system: HT29 colon
HL-60(TB) leukemia = system: HL-60(TB) leukemia
SNB-19 CNS = system: SNB-19 CNS
HCT-15 colon = system: HCT-15 colon
IGROV1 ovarian = system: IGROV1 ovarian
PC-3 prostate = system: PC-3 prostate
SK-MEL-28 melanoma = system: SK-MEL-28 melanoma
OVCAR-8 ovarian = system: OVCAR-8 ovarian
KM12 colon = system: KM12 colon
HCT-116 colon = system: HCT-116 colon
SN12C renal = system: SN12C renal
A498 renal = system: A498 renal
TK-10 renal = system: TK-10 renal
U251 glioblastoma = system: U251 glioblastoma
SR leukemia = system: SR leukemia
K-562 leukemia = system: K-562 leukemia
DU-145 prostate = system: DU-145 prostate
HOP-62 NSCLC = system: HOP-62 NSCLC
SF-539 CNS = system: SF-539 CNS
MDA-MB-468 breast = system: MDA-MB-468 breast
MCF7 breast = system: MCF7 breast
HCC-2998 colon = system: HCC-2998 colon
MDA-MB-435 melanoma = system: MDA-MB-435 melanoma
CAKI-1 renal = system: CAKI-1 renal
UACC-257 melanoma = system: UACC-257 melanoma
CCRF-CEM leukemia = system: CCRF-CEM leukemia
SF-295 CNS = system: SF-295 CNS
SK-OV-3 ovarian = system: SK-OV-3 ovarian
OVCAR-3 ovarian = system: OVCAR-3 ovarian
NCI-H460 NSCLC = system: NCI-H460 NSCLC
NCI/ADR-RES ovarian = system: NCI/ADR-RES ovarian
786-0 renal = system: 786-0 renal
OVCAR-4 ovarian = system: OVCAR-4 ovarian
EKVX NSCLC = system: EKVX NSCLC
NCI-H226 lung = system: NCI-H226 lung
RPMI-8226 leukemia = system: RPMI-8226 leukemia
RXF 393 renal = system: RXF 393 renal
HOP-92 NSCLC = system: HOP-92 NSCLC
NCI-H23 lung = system: NCI-H23 lung
M14 melanoma = system: M14 melanoma
OVCAR-5 ovarian = system: OVCAR-5 ovarian
BT-549 breast = system: BT-549 breast
MALME-3M melanoma = system: MALME-3M melanoma
SK-MEL-5 melanoma = system: SK-MEL-5 melanoma
T-47D breast = system: T-47D breast

O=C1CC(c2c[nH]c3ccc(F)cc23)C(=O)N1 (stereo unspecified)
> 100 µM: TGI (SNB-75 CNS) | TGI (MOLT-4 leukemia) | TGI (HS 578T breast) | TGI (SF-268 CNS) | TGI (NCI-H522 lung) | TGI (SK-MEL-2 melanoma) | TGI (COLO 205 colon) | TGI (NCI-H322M lung) | TGI (ACHN renal) | TGI (A549 NSCLC) | TGI (SW-620 colon) | TGI (MDA-MB-231 breast) | TGI (UACC-62 melanoma) | TGI (HT29 colon) | TGI (HL-60(TB) leukemia) | TGI (SNB-19 CNS) | TGI (HCT-15 colon) | TGI (IGROV1 ovarian) | TGI (PC-3 prostate) | TGI (SK-MEL-28 melanoma) | TGI (OVCAR-8 ovarian) | TGI (KM12 colon) | TGI (HCT-116 colon) | TGI (SN12C renal) | TGI (A498 renal) | TGI (TK-10 renal) | TGI (U251 glioblastoma) | TGI (SR leukemia) | TGI (K-562 leukemia) | TGI (DU-145 prostate) | TGI (HOP-62 NSCLC) | TGI (SF-539 CNS) | TGI (MDA-MB-468 breast) | TGI (MCF7 breast) | TGI (HCC-2998 colon) | TGI (MDA-MB-435 melanoma) | TGI (CAKI-1 renal) | TGI (UACC-257 melanoma) | TGI (CCRF-CEM leukemia) | TGI (SF-295 CNS) | TGI (SK-OV-3 ovarian) | TGI (OVCAR-3 ovarian) | TGI (NCI-H460 NSCLC) | TGI (NCI/ADR-RES ovarian) | TGI (786-0 renal) | TGI (OVCAR-4 ovarian) | TGI (EKVX NSCLC) | TGI (NCI-H226 lung) | TGI (RPMI-8226 leukemia) | TGI (RXF 393 renal) | TGI (HOP-92 NSCLC) | TGI (NCI-H23 lung) | TGI (M14 melanoma) | TGI (OVCAR-5 ovarian) | TGI (BT-549 breast) | TGI (MALME-3M melanoma) | TGI (SK-MEL-5 melanoma) | TGI (T-47D breast)
inactive: GI50 (SNB-75 CNS) > 100 µM | GI50 (MOLT-4 leukemia) > 100 µM | GI50 (HS 578T breast) > 100 µM | GI50 (SF-268 CNS) > 100 µM | GI50 (NCI-H522 lung) > 100 µM | GI50 (SK-MEL-2 melanoma) > 100 µM | GI50 (COLO 205 colon) > 100 µM | GI50 (NCI-H322M lung) > 100 µM | GI50 (ACHN renal) > 100 µM | GI50 (A549 NSCLC) > 100 µM | GI50 (SW-620 colon) > 100 µM | GI50 (MDA-MB-231 breast) > 100 µM | GI50 (UACC-62 melanoma) > 100 µM | GI50 (HT29 colon) > 100 µM | GI50 (HL-60(TB) leukemia) > 100 µM | GI50 (SNB-19 CNS) > 100 µM | GI50 (HCT-15 colon) > 100 µM | GI50 (IGROV1 ovarian) > 100 µM | GI50 (PC-3 prostate) > 100 µM | GI50 (SK-MEL-28 melanoma) > 100 µM | GI50 (OVCAR-8 ovarian) > 100 µM | GI50 (KM12 colon) > 100 µM | GI50 (HCT-116 colon) > 100 µM | GI50 (SN12C renal) > 100 µM | GI50 (A498 renal) > 100 µM | GI50 (TK-10 renal) > 100 µM | GI50 (U251 glioblastoma) > 100 µM | GI50 (SR leukemia) > 100 µM | GI50 (K-562 leukemia) > 100 µM | GI50 (DU-145 prostate) > 100 µM | GI50 (HOP-62 NSCLC) > 100 µM | GI50 (SF-539 CNS) > 100 µM | GI50 (MDA-MB-468 breast) > 100 µM | GI50 (MCF7 breast) > 100 µM | GI50 (HCC-2998 colon) > 100 µM | GI50 (MDA-MB-435 melanoma) > 100 µM | GI50 (CAKI-1 renal) > 100 µM | GI50 (UACC-257 melanoma) > 100 µM | GI50 (CCRF-CEM leukemia) > 100 µM | GI50 (SF-295 CNS) > 100 µM | GI50 (SK-OV-3 ovarian) > 100 µM | GI50 (OVCAR-3 ovarian) > 100 µM | GI50 (NCI-H460 NSCLC) > 100 µM | GI50 (NCI/ADR-RES ovarian) > 100 µM | GI50 ([…]-0 renal) > 100 µM | GI50 (OVCAR-4 ovarian) > 100 µM | GI50 (EKVX NSCLC) > 100 µM | GI50 (NCI-H226 lung) > 100 µM | GI50 (RPMI-8226 leukemia) > 100 µM | GI50 (RXF 393 renal) > 100 µM | GI50 (HOP-92 NSCLC) > 100 µM | GI50 (NCI-H23 lung) > 100 µM | GI50 (M14 melanoma) > 100 µM | GI50 (OVCAR-5 ovarian) > 100 µM | GI50 (BT-549 breast) > 100 µM | GI50 (MALME-3M melanoma) > 100 µM | GI50 (SK-MEL-5 melanoma) > 100 µM | GI50 (T-47D breast) > 100 µM
